According to PubChem BioAssay AID192 (DTP/NCI, 2004):
Toxic doses and inconclusive results are not listed. How the source made its calls: active means survival T/C of 150% or more; inactive means T/C below 125% in these data.

Tested on: BDF1 mice, B16 melanoma ip, median survival T/C
Test: NCI In Vivo Anticancer Drug Screen. Data for tumor model B16 Melanoma (intraperitoneal) in B6D2F1 (BDF1) mice
Conditions: endpoint: median survival time, higher = longer survival
Method in brief: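 Compounds were tested in mice carrying transplantable tumors. Survival or tumor size was recorded, and each value is the treated-group measurement (T) divided by that of the vehicle-treated control group (C).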

[1] = dose: 12.5 mg/kg/injection, schedule: Q01DX009 (ip), vehicle: Klucel (hydroxypropylcellulose) (HPC)
[2] = dose: 25.0 mg/kg/injection, schedule: Q01DX009 (ip), vehicle: Klucel (hydroxypropylcellulose) (HPC)
[3] = dose: 50.0 mg/kg/injection, schedule: Q01DX009 (ip), vehicle: Klucel (hydroxypropylcellulose) (HPC)
[4] = dose: 100.0 mg/kg/injection, schedule: Q01DX009 (ip), vehicle: Klucel (hydroxypropylcellulose) (HPC)
[5] = dose: 6.25 mg/kg/injection, schedule: Q01DX009 (ip), vehicle: saline with Tween-80
[6] = dose: 12.5 mg/kg/injection, schedule: Q01DX009 (ip), vehicle: saline with Tween-80
[7] = dose: 50.0 mg/kg/injection, schedule: Q01DX009 (ip), vehicle: saline
[8] = dose: 100.0 mg/kg/injection, schedule: Q01DX009 (ip), vehicle: saline with Tween-80
[9] = dose: 200.0 mg/kg/injection, schedule: Q01DX009 (ip), vehicle: saline with Tween-80
[10] = dose: 25.0 mg/kg/injection, schedule: Q01DX009 (ip), vehicle: saline with Tween-80
[11] = dose: 50.0 mg/kg/injection, schedule: Q01DX009 (ip), vehicle: saline with Tween-80

Measured: T/C

C[C@]12CC[C@@H]3c4ccc(OC(=O)Cc5ccc(N(CCCl)CCCl)cc5)cc4CC[C@H]3[C@@H]1CC[C@@H]2OC(=O)Cc1ccc(N(CCCl)CCCl)cc1
inactive: [1] 95 % of control | [2] 108 % of control | [3] 104 % of control | dose: 64.0 mg/kg/injection, schedule: Q02DX009 (ip), vehicle: Klucel (hydroxypropylcellulose) (HPC) 95 % of control | [4] 111 % of control | dose: 200.0 mg/kg/injection, schedule: Q01DX009 (ip), vehicle: Klucel (hydroxypropylcellulose) (HPC) 118 % of control | dose: 256.0 mg/kg/injection, schedule: Q02DX009 (ip), vehicle: Klucel (hydroxypropylcellulose) (HPC) 90 % of control | dose: 400.0 mg/kg/injection, schedule: Q01DX009 (ip), vehicle: Klucel (hydroxypropylcellulose) (HPC) 123 % of control

COC(=O)CC(=O)CBr
inactive: dose: 5.0 mg/kg/injection, schedule: Q01DX009 (ip), vehicle: saline 100 % of control | dose: 10.0 mg/kg/injection, schedule: Q01DX009 (ip), vehicle: saline 93 % of control | dose: 20.0 mg/kg/injection, schedule: Q01DX009 (ip), vehicle: saline 94 % of control

O=[N+]([O-])c1ccc(C=C2C(Cl)=C(Cl)C(Cl)=C2Cl)cc1
inactive: dose: 3.13 mg/kg/injection, schedule: Q01DX009 (ip), vehicle: saline with Tween-80 101 % of control | [5] 91 % of control | [6] 89 % of control

C[N+](C)(C)C1CC1
inactive: dose: 12.5 mg/kg/injection, schedule: Q01DX009 (ip), vehicle: saline 105 % of control | dose: 25.0 mg/kg/injection, schedule: Q01DX009 (ip), vehicle: saline 102 % of control | [7] 102 % of control

NN(CC1=COc2ccccc2O1)Cc1ccccc1
inactive: [1] 94 % of control | [2] 94 % of control | [3] 91 % of control | [4] 105 % of control | dose: 200.0 mg/kg/injection, schedule: Q04DX003 (ip), vehicle: Klucel (hydroxypropylcellulose) (HPC) 91 % of control

COc1cc2cc3cc4cc(OC)c(OC)cc4c(C)[n+]3cc2cc1OC (tested in a mixture with another compound)
inactive: dose: 10.0 mg/kg/injection, schedule: Q01DX009 (ip), vehicle: Klucel (hydroxypropylcellulose) (HPC) 96 % of control | dose: 20.0 mg/kg/injection, schedule: Q01DX009 (ip), vehicle: Klucel (hydroxypropylcellulose) (HPC) 95 % of control

O=C(O)CCCSc1nc2ccccc2s1
inactive: [8] 100 % of control | [9] 95 % of control

N#CC1C(=O)c2ccccc2C1=O
inactive: [10] 114 % of control | [11] 106 % of control

N#C[CH2][Sn]([I])([c]1ccccc1)[c]1ccccc1
inactive: dose: 3.12 mg/kg/injection, schedule: Q01DX009 (ip), vehicle: saline with Tween-80 93 % of control | [5] 87 % of control | [6] 86 % of control

c1ccc(COCCNCCOCc2ccccc2)cc1
inactive: [1] 100 % of control | [2] 90 % of control | [3] 103 % of control

CCCCC(=O)NN
inactive: [6] 102 % of control | [10] 96 % of control | [11] 100 % of control

CCN(CC)CCN(C)CCN(CC)CC
inactive: [7] 100 % of control | dose: 100.0 mg/kg/injection, schedule: Q01DX009 (ip), vehicle: saline 94 % of control

CCCCCCOC(CN(C)C)C(Cl)(Cl)Cl (stereo unspecified)
inactive: dose: 12.5 mg/kg/injection, schedule: Q01DX009 (ip), vehicle: distilled water + Tween-80 100 % of control | [6] 101 % of control | dose: 25.0 mg/kg/injection, schedule: Q01DX009 (ip), vehicle: distilled water + Tween-80 97 % of control | [10] 105 % of control | dose: 50.0 mg/kg/injection, schedule: Q01DX009 (ip), vehicle: distilled water + Tween-80 94 % of control | [11] 102 % of control | dose: 100.0 mg/kg/injection, schedule: Q01DX009 (ip), vehicle: distilled water + Tween-80 89 % of control | [8] 90 % of control | [9] 89 % of control

O=C(NC(Cc1ccccc1)C(=O)NC(Cc1c[nH]c2ccccc12)C(=O)O)OCc1ccccc1 (stereo unspecified)
inactive: [11] 98 % of control | [8] 100 % of control | [9] 94 % of control
